Source: publication PMC8040626, “A unique Malpighian tubule architecture in Tribolium castaneum informs the evolutionary origins of systemic osmoregulation in beetles” (Proceedings of the National Academy of Sciences of the …, 2021)
Entries after “also recorded” stand apart in the source; their conditions may differ.

Experiments:
[1] = system: basolateral membranes of SCs in MTs; assay: Ex vivo ligand-receptor binding assay, T. molitor tubules; design: species or system Tenebrio molitor; details: labelled peptide 10^-7 M, confocal microscopy
From the text: Fig. 2. The Urn8 receptor localizes to a secondary cell type in MTs and is activated by its endogenous ligands DH37 and DH47. (A) Urn8R is expressed in a subpopulation of cells throughout the “free” part of the T. castaneum MT (small arrows); there are 53 ± 2 (n = 8) cells per tubule. […] (Scale bars, Left, 150 μm; Middle and Right, 30 μm.) (B) Western blot analysis of protein extracts from T. castaneum tubules showing that the anti-Urn8R antiserum recognizes a protein of a size of approximately 50 to 55 kDa, consistent with the predicted size of the receptor (51.6 kDa for the dominant -RA isoform, arrow). (C) Application of fluorophore-coupled receptor agonists DH37-F and DH47-F (10^−7 M) to T. castaneum and T. molitor MTs. […] Values are expressed as mean ± SEM. […]
(§1) Ligand-Receptor Binding Assay. […] Next, the tissues were set-up in a matched-pair protocol, in which one batch was incubated in the appropriate insect saline added the labelled neuropeptide analogue ([…]) and DAPI (1 µg ml-1), while the other was incubated in just DAPI; the latter batch was used to adjust baseline filter and exposure settings to minimize auto-fluorescence during image acquisition.
(§2) Images were subsequently recorded on a Zeiss LSM 800 confocal microscope using baseline filter and exposure settings. […]

[2] = system: Urn8R on the SC basal membrane; assay: Ex vivo ligand-receptor binding assay, T. castaneum tubules; design: species or system Tribolium castaneum; details: T. castaneum MTs, labelled peptide 10^-7 M, confocal microscopy
From the text: To dissect the molecular mechanism underpinning Urn8-mediated control of tubule function, we immunolocalized Urn8R to the tubule epithelium of T. castaneum. […] The SC identity of this Urn8R-expressing cell type was verified by colocalization of the Tiptop transcription factor, which is known to control SC differentiation in other insects ([21]) (SI Appendix, Fig. S2A). The fact that the Urn8 pathway is confined exclusively to SCs in T. castaneum is in contrast to that of all other insects studied to date in which this hormonal circuit is diagnostic of PC activity, the majority cell type ([22]–[24]). […] Specificity of the antibody was verified by the lack of staining in MTs from Urn8R-silenced animals, and by the fact that the molecular weight of the protein corresponds to the predicted size of the receptor (Fig. 2 A and B). […]
as §1, §2

[3] = system: small-nucleated SC-type of MTs; assay: Ex vivo ligand-receptor binding assay, polyphagan beetles; details: all polyphagan beetles
From the text: (§3) Collectively, our work points to a model in which beetle MT function operates via a two-cell–type model that is different from that of all other higher insects ([11]). To determine whether this epithelial organization is universal among beetles or, alternatively, a derived trait specific to the drought-resistant tenebrionid species, we adapted the ligand-receptor binding assay (as used in Fig. 2C) to systematically map MT tissue architecture across the beetle phylogeny. In our sampling strategy, we prioritized species representative of the larger beetle families while trying to select species inhabiting different types of ecological niches (dry, moist, or aquatic). […]
as §1, §2
(§4) Electrophysiological assays. […] In brief, the ion-selective microelectrode voltage was measured at a position close to the tissue (3–5 μm) and subsequently at a more distant position (app. 50 μm) from the tubule. […]

[4] = system: tubule basolateral membranes; assay: Ex vivo ligand-receptor binding assay, all beetle species sampled; design: species or system all species sampled (beetles)
From the text: as §3, §1, §2, §4

larger PC-type of MTs = assay: Ex vivo ligand-receptor binding assay, adephagan species
From the text: as §3, §1, §2, §4

Row | Substance | Binding of fluorophore-coupled ligand [1] | Binding of fluorophore-coupled ligand [2] | Binding of fluorophore-coupled ligand, cell type [3] | Binding of fluorophore-coupled ligand [4] | Binding of fluorophore-coupled ligand, cell type (larger PC-type of MTs)
1 | TMR-C5-maleimide-AGALGESGASLSIVNSLDVLRNRLLLEIARKKAKEGANRNRQILLSLamide [DH47-F, fluorophore-coupled DH47 analog, TMR-C5-maleimide labelled] | bind to basolateral membranes of SCs; also recorded: Specific and displaceable binding to the SCs | bind to basolateral membranes of SCs; also recorded: Specific and displaceable binding to the SCs | localized entirely to a small-nucleated SC-type | specific and displaceable | confined to a larger PC-type
2 | TMR-C5-maleimide-SPTISITAPIDVLRKTWAKENMRKQMQINREYLKNLQamide [DH37-F, fluorophore-coupled DH37 analog, TMR-C5-maleimide labelled] | bind to basolateral membranes of SCs; also recorded: Specific and displaceable binding to the SCs | bind to basolateral membranes of SCs; also recorded: Specific and displaceable binding to the SCs | localized entirely to a small-nucleated SC-type | specific and displaceable | confined to a larger PC-type
